Usually log P stands for a log measure of how a compound divides between an organic and an aqueous phase.

Like-named read-outs stand apart in the source and are kept apart here.

Data set [1] is described as follows: physchem. In kind it is physicochemical. The source says: The assays would allow a formation of isopilocarpine or isopilocarpic acid of 1% to be detected.
A short description of data set [2]: Apparent partition coefficient 1-octanol/phosphate buffer pH 7.4. Format: physicochemical. Particulars: for log P: pH 7.4.
Data set [3] can be described thus: Degradation of O-acyl pilocarpic acid esters and formation of pilocarpine in 75% human plasma. Format: in vitro ADME. Particulars: for half-life: 75% plasma. An excerpt:
^b In 75% human plasma (pH 7.4) the 4methylbenzyl ester of pilocarpic
O--acyl esters as determined by HPLC.

Data set [4] can be described thus: Hydrolysis/stability of O-acyl pilocarpic acid esters in plasma-free buffer (specific base catalysis). Format: physicochemical. The note with it: for kOH (catalytic rate constant, specific base-catalyzed hydrolysis): 37° C., based on hydroxide ion activity; for half-life: buffer. The procedure: ^c The hydrolysis is specific basecatalyzed and the data shown were
obtained by extrapolating experimental rate constants at pH 10-12 to pH
7.4. At 20° C. the t0.5 values were 4.5 and 1.4 years, […]

For data set [5], the system named is eyes of the rabbits. Put plainly: Ophthalmic pupillary diameter or miosis study. In kind it is in vivo, male albino rabbits. The note with it: for duration of miotic effect compared with pilocarpine / overall miotic effect compared with pilocarpine: 25 μl topical, pH 4.5, FIG. 3, in words; for duration of miotic activity of the di-esters: FIG. 5, 0.5% pilocarpine nitrate equivalent. As for the experimental part: Twenty-five microliter volumes of each solution were administered by topical ophthalmic instillation to male albino rabbits, and pupillary diameter changes or miotic activities in the eyes of the rabbits were recorded as a function of time, and were compared. A detailed description of the procedure for the miosis study is given in Mitra & Mikkelson (1982) and references cited therein. […] Thus, the miotic activity observed after administration of a solution of O-benzoyl pilocarpic acid 4-methylbenzyl ester lasted for 4.5 hours as shown in FIG. 4. The equivalent concentrations and pH were the same as in the above experiment.
The compounds are: 4-methylbenzyl pilocarpic acid ester, O-benzoyl pilocarpic acid 4-methylbenzyl ester, and O-acetyl pilocarpic acid 4-methylbenzyl ester. In each of these three derivatives the R1 -substituent is the 4-methylbenzyloxy group. […] Duration of the activity of the di-esters is seen to be approximately 4.5 hours.
In FIG. 6 the compounds are the O-benzoyl 4-chlorobenzyl, the O-phenylacetyl benzyl, and the O-3-chlorobenzoyl benzyl pilocarpic acid esters. In FIG. 7 the compounds are the O-benzoyl benzyl, the O-butyryl 4-methylbenzyl and the O-nicotionyl benzyl pilocarpic acid esters. […] Again, the extended duration is apparent. Thus, even though the dosage level is less than in the previous experiments, the miotic effect is apparent for up to 4.5 hours after administration.

Data set [6] can be described thus: pKa, solubility and other physicochemical properties. Particulars: in words.
Data set [7] can be described thus: Shelf-life / stability of aqueous solutions. In kind it is physicochemical. As for the experimental part: At such pH values the stability is much increased as compared with that at neutral and basic pH values. […] At these pH values solutions of the compound were predicted to have shelf-lives in excess of 8 years at 25° C. and 20 years at 20° C. as determined on the basis of temperature-accelerated kinetic stability studies.

Setting [8] is: octanol/phosphate buffer, pH 7.4, Partition coefficients (P).
[9] abbreviates: human, pH 7.4, 37° C., di-esters (Table 3), read-out: t0.5 human plasma (75%).
The mark [10] stands for this setting: octanol/buffer, pH 7.4, di-esters (Table 3), read-out: log P octanol/buffer pH 7.4.
[11] abbreviates: 0.5% pilocarpine nitrate equivalent.
[12] abbreviates: 25 μl of 0.25% (pilocarpine nitrate equivalent), FIGS. 6 and 7.
Setting [13] is: 75% human plasma (pH 7.4) at 37° C., in words.
Setting [14] is: 75% human plasma (pH 7.4) at 37° C., read-out: half-lives of degradation in 75% human plasma.
[15] abbreviates: pH 7.4, 20° C., hydrolysis in buffer pH 7.4, extrapolated (Table 2 footnote c), read-out: t0.5 values at 20° C. (converted).
The mark [16] stands for this setting: pH 7.4, 37° C., extrapolated from rate constants at pH 10-12 to pH 7.4, read-out: t0.5 of hydrolysis to pilocarpic acid 4-methylbenzyl ester, pH 7.4 buffer (converted).
Where [17] appears, read: octanol/phosphate buffer, pH 7.4, octanol / 0.05 M phosphate buffer pH 7.40, O-acyl derivatives of pilocarpic acid 4-methylbenzyl ester (Table 2), read-out: Partition coefficients (P) (converted).

`CCCCOC(=O)[C@@H](CC)[C@H](CO)Cc1cncn1C` [Example 2, Pilocarpic Acid Butyl Ester]: the half-life in data set [1] (buffer, pH 7.4) was 13.7 h. Further, the logD in data set [2] (setting [8]) was 1.58.

On to `CC[C@H](C(=O)OCCc1ccccc1)[C@H](COC(=O)c1ccccc1)Cc1cncn1C` [Example 16, O-Benzoyl Pilocarpic Acid 2-Phenylethyl Ester], for which, in data set [3] (setting [9]), the half-life came to 0.25 h. The “kOH (catalytic rate constant, specific base-catalyzed hydrolysis)” value (shortened to “kOH”) in data set [4] was 0.0633 M⁻¹ s⁻¹. Besides, the logD in data set [2] (setting [10]) came out at 4.6.

As for `CC[C@H](C(=O)OCc1ccc(Cl)cc1)[C@H](COC(=O)c1ccccc1)Cc1cncn1C` [Example 15, O-Benzoyl Pilocarpic Acid 4-Chlorobenzyl Ester], the half-life in data set [3] (setting [9]) is 0.283 h. Also, the “kOH” value in data set [4] turned out to be 0.0567 M⁻¹ s⁻¹. Besides, the logD in data set [2] (setting [10]) was 4.75. Also, the “time for which miotic effect is apparent” value in data set [5] (25 μl of 0.125% (pilocarpine nitrate equivalent), FIG. 6) was “up to 4.5 hours”.

In data set [1] (buffer, pH 7.4), `CC[C@H](C(=O)OCc1ccc(Cl)cc1)[C@H](CO)Cc1cncn1C` [Example 4, Pilocarpic Acid 4-Chlorobenzyl Ester] gave a half-life of 0.5 h. The logD in data set [2] (setting [8]) was 2.54. Further, in data set [5] (setting [11]), the “duration of miotic effect compared with pilocarpine” value is “most significantly and dramatically longer”; the “overall miotic effect compared with pilocarpine” value is listed as “significantly greater in their overall effect”.

Regarding `CC[C@H](C(=O)OCc1ccccc1C)[C@H](CO)Cc1cncn1C` [Example 6, Pilocarpic Acid 2-Methylbenzyl Ester], in data set [2] (setting [8]), the logD was 2.27.

Regarding `CC[C@H](C(=O)OCc1ccccc1)[C@H](COC(=O)c1cccc(Cl)c1)Cc1cncn1C` [Example 17, O-3-Chlorobenzoyl Pilocarpic Acid Benzyl Ester], the half-life in data set [3] (setting [9]) came to 0.417 h. Also, in data set [4], the “kOH” value stood at 0.243 M⁻¹ s⁻¹. The logD in data set [2] (setting [10]) was found to be 4.93. The “time for which miotic effect is apparent” value in data set [5] (setting [12]) is listed as “up to 4.5 hours”.

With `CC[C@H](C(=O)OCCc1ccccc1)[C@H](CO)Cc1cncn1C` [Example 9, Pilocarpic Acid 2-Phenylethyl Ester], in data set [2] (octanol/phosphate buffer), the “log P” value is 2.16. For the same compound, in data set [2] (setting [8]), the logD is 2.16.

As for `CC[C@@H]1C(=O)OC[C@@H]1Cc1cncn1C` [Pilocarpine, reference compound], the “water solubility of pilocarpine” value in data set [6] (free base form and various salts) is given as “extremely water-soluble”. Also, the “shelf life in aqueous solutions” value in data set [7] (pilocarpine, pH 6.4 and 20° C.) is given as “less than 1 year”.

For the compound `CC[C@H](C(=O)OCc1ccc(C)cc1)[C@H](COC(=O)c1ccccc1)Cc1cncn1C` [Example 11, O-Benzoyl Pilocarpic Acid 4-Methylbenzyl Ester], the “yield of pilocarpic acid 4-methylbenzyl ester formed in plasma” value in data set [3] (setting [13]) was “quantitative amounts”. The “sum of the concentrations of O-benzoyl di-ester, intermediate ester and pilocarpine at any time” value in data set [3] (75% human plasma, FIG. 2) turned out to be 100±3%. Further, the half-life in data set [3] (setting [14]) was 0.267 h; in data set [4] (setting [15]), 1640 days; in data set [4] (setting [16]), 200 days. Besides, the “kOH” value in data set [4] is 0.0667 M⁻¹ s⁻¹. Further, the logD in data set [2] (setting [10]) and in data set [2] (setting [17]) was 4.7 each time. Further, the “duration of miotic activity” value in data set [5] (25 μl, 0.5% pilocarpine nitrate equivalent, FIG. 4) was 4.5 h. Further, in data set [5] (FIG. 4, 0.5% pilocarpine nitrate equivalent), the “bioavailability relative to pilocarpine” value is on record as “approximately 4 fold”. Moreover, in data set [5], the “duration of miotic activity of the di-esters” value was “approximately 4.5 hours”.

`CC[C@H](C(=O)OCc1ccc(C)cc1)[C@H](COC(C)=O)Cc1cncn1C` [Example 12, O-Acetyl Pilocarpic Acid 4-Methylbenzyl Ester]: the “yield of pilocarpic acid 4-methylbenzyl ester formed in plasma” value in data set [3] (setting [13]) was “quantitative amounts”. Besides, the half-life in data set [3] (setting [14]) was 0.4 h; in data set [4] (setting [15]), 511 days; in data set [4] (setting [16]) it was 62.5 days. In data set [4], the “kOH” value came out at 0.21 M⁻¹ s⁻¹. Moreover, the logD was 3.16 in data set [2] (setting [10]); 3.16 in data set [2] (octanol/phosphate buffer, pH 7.4, octanol / 0.05 M phosphate buffer pH 7.40 (Table 2), read-out: log P); 3.16 in data set [2] (setting [17]). In addition, in data set [5], the “duration of miotic activity of the di-esters” value is reported as “approximately 4.5 hours”.

As for `CC[C@H](C(=O)OCc1ccccc1)[C@H](COC(=O)Cc1ccccc1)Cc1cncn1C` [Example 19, O-Phenylacetyl Pilocarpic Acid Benzyl Ester], in data set [3] (setting [9]), the half-life came out at 0.0667 h. The “kOH” value in data set [4] stood at 0.362 M⁻¹ s⁻¹. Further, the logD in data set [2] (setting [10]) stood at 3.85. In data set [5] (setting [12]), the “time for which miotic effect is apparent” value is listed as “up to 4.5 hours”.

With `CCCC(=O)OCC(Cc1cncn1C)C(CC)C(=O)OCc1ccc(C)cc1` (centres unmarked) [Example 18, O-Butyryl Pilocarpic Acid 4-Methylbenzyl Ester], the half-life in data set [3] (setting [9]) is 0.25 h. For the same compound, in data set [4], the “kOH” value turned out to be 0.0583 M⁻¹ s⁻¹. In addition, in data set [2] (setting [10]), the logD stood at 4.09. Also, the “time for which miotic effect is apparent” value in data set [5] (setting [12]) is “up to 4.5 hours”.

With `CC[C@H](C(=O)OCc1ccccc1)[C@H](COC(=O)c1cccnc1)Cc1cncn1C` [Example 20, O-Nicotinoyl Pilocarpic Acid Benzyl Ester], in data set [3] (setting [9]), the half-life was found to be 0.1 h. In addition, in data set [4], the “kOH” value was 0.74 M⁻¹ s⁻¹. Further, the logD in data set [2] (setting [10]) amounted to 2.9. The “time for which miotic effect is apparent” value in data set [5] (setting [12]) is on record as “up to 4.5 hours”.

On to `CC[C@H](C(=O)OCc1ccccc1)[C@H](CO)Cc1cncn1C` [Example 3, Pilocarpic Acid Benzyl Ester], for which the half-life in data set [1] (buffer, pH 7.4) is 0.833 h. Moreover, in data set [2] (setting [8]), the logD is 1.82. Further, the hygroscopicity result in data set [6] is reported as “hygroscopic”. Moreover, in data set [5] (setting [11]), the “duration of miotic effect compared with pilocarpine” value was “most significantly and dramatically longer”; the “overall miotic effect compared with pilocarpine” value is reported as “significantly greater in their overall effect”.

In the case of `CC[C@H](C(=O)OC(C)c1ccccc1)[C@H](CO)Cc1cncn1C` (some centres unmarked) [Example 13, Pilocarpic Acid 1-Phenylethyl Ester], in data set [2] (octanol/phosphate buffer), the log partition coefficient (log P) turned out to be 2.08. Also, the logD in data set [2] (setting [8]) was 2.08.

In the case of `CC[C@H](C(=O)OCc1ccc(C)cc1)[C@H](CO)Cc1cncn1C` [Example 5, Pilocarpic Acid 4-Methylbenzyl Ester], the half-life in data set [1] (buffer, pH 7.4) came to 1.28 h; in data set [1] (plasma-free buffer), 1.28 h; in data set [3] (75% human plasma (pH 7.4) at 37° C., after formation from the O-acyl esters), 1.38 h. Moreover, the “extent of cyclization to pilocarpine in plasma” value in data set [3] (setting [13]) is given as “cyclized quantitatively to pilocarpine”. Further, the logD in data set [2] (setting [8]) was 2.31. The “shelf-life (time for 10% decomposition) at 4° C.” value in data set [7] (aqueous solution pH 4.0, 4° C.) is listed as 3.8 years. Also, the “shelf-life (time for 10% decomposition) at 20° C.” value in data set [7] (aqueous solution pH 4.0, 20° C.) was “about 1.5 years”. For the same compound, in data set [5] (setting [11]), the “duration of miotic effect compared with pilocarpine” value is “most significantly and dramatically longer”. Further, in data set [5] (setting [11]), the “overall miotic effect compared with pilocarpine” value was “significantly greater in their overall effect”.

Turning to `CC[C@H](C(=O)OCc1ccccc1)[C@H](COC(=O)c1ccccc1)Cc1cncn1C` [Example 14, O-Benzoyl Pilocarpic Acid Benzyl Ester], the half-life in data set [3] (setting [9]) is 0.2 h. Moreover, the “kOH” value in data set [4] worked out at 0.0633 M⁻¹ s⁻¹. The logD in data set [2] (setting [10]) came out at 4.22. Further, in data set [7] (aqueous solution pH 3-5, 20° C., temperature-accelerated kinetic stability studies), the “predicted shelf-life at 20° C.” value is on record as more than 20 years. Also, in data set [7] (aqueous solution pH 3-5, 25° C., temperature-accelerated kinetic stability studies), the “predicted shelf-life at 25° C.” value was more than 8 years. Also, the “pH region of maximum stability” value in data set [7] (aqueous solutions) is 3-5 pH. Further, the “time for which miotic effect is apparent” value in data set [5] (setting [12]) is on record as “up to 4.5 hours”.

The values above are taken from patent US4742073A (priority 1982, dated 1988).
